PubChem BioAssay (NCI)
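Abbreviation: GI50, concentration required for 50% inhibition of growth. The concentration for full growth arrest is given as TGI.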

Columns and labels:
Assay in all cases: NCI-60 cell line screen, 384-well format
SW-620 colon = tested on: SW-620 colon
MDA-MB-231 breast = tested on: MDA-MB-231 breast
SF-268 CNS = tested on: SF-268 CNS
RPMI-8226 leukemia = tested on: RPMI-8226 leukemia
MOLT-4 leukemia = tested on: MOLT-4 leukemia
OVCAR-4 ovarian = tested on: OVCAR-4 ovarian
MCF7 breast = tested on: MCF7 breast
SK-MEL-28 melanoma = tested on: SK-MEL-28 melanoma
SF-539 CNS = tested on: SF-539 CNS
CAKI-1 renal = tested on: CAKI-1 renal
IGROV1 ovarian = tested on: IGROV1 ovarian
UO-31 renal = tested on: UO-31 renal
SN12C renal = tested on: SN12C renal
SK-OV-3 ovarian = tested on: SK-OV-3 ovarian
ACHN renal = tested on: ACHN renal
BT-549 breast = tested on: BT-549 breast
A498 renal = tested on: A498 renal
786-0 renal = tested on: 786-0 renal
LOX IMVI melanoma = tested on: LOX IMVI melanoma
HL-60(TB) leukemia = tested on: HL-60(TB) leukemia
SF-295 CNS = tested on: SF-295 CNS
A549 NSCLC = tested on: A549 NSCLC
HOP-92 NSCLC = tested on: HOP-92 NSCLC
NCI-H226 lung = tested on: NCI-H226 lung
SR leukemia = tested on: SR leukemia
NCI-H23 lung = tested on: NCI-H23 lung
NCI/ADR-RES ovarian = tested on: NCI/ADR-RES ovarian
COLO 205 colon = tested on: COLO 205 colon
NCI-H522 lung = tested on: NCI-H522 lung
KM12 colon = tested on: KM12 colon
HS 578T breast = tested on: HS 578T breast
RXF 393 renal = tested on: RXF 393 renal
T-47D breast = tested on: T-47D breast
HCT-15 colon = tested on: HCT-15 colon
SNB-75 CNS = tested on: SNB-75 CNS
OVCAR-8 ovarian = tested on: OVCAR-8 ovarian
NCI-H460 NSCLC = tested on: NCI-H460 NSCLC
EKVX NSCLC = tested on: EKVX NSCLC
U251 glioblastoma = tested on: U251 glioblastoma
MDA-MB-468 breast = tested on: MDA-MB-468 breast
SK-MEL-5 melanoma = tested on: SK-MEL-5 melanoma
UACC-62 melanoma = tested on: UACC-62 melanoma
PC-3 prostate = tested on: PC-3 prostate
MALME-3M melanoma = tested on: MALME-3M melanoma
DU-145 prostate = tested on: DU-145 prostate
MDA-MB-435 melanoma = tested on: MDA-MB-435 melanoma
TK-10 renal = tested on: TK-10 renal
SNB-19 CNS = tested on: SNB-19 CNS
HCT-116 colon = tested on: HCT-116 colon
M14 melanoma = tested on: M14 melanoma
OVCAR-5 ovarian = tested on: OVCAR-5 ovarian
OVCAR-3 ovarian = tested on: OVCAR-3 ovarian
UACC-257 melanoma = tested on: UACC-257 melanoma
HOP-62 NSCLC = tested on: HOP-62 NSCLC

With `C=CC(=O)N1CCCC(n2nc(-c3ccc(Oc4ccccc4)cc3)c3c(N)ncnc32)C1` (stereo not drawn) the GI50 (SW-620 colon) was 18.4 µM, the TGI (SW-620 colon) was 32.5 µM and the GI50 (MDA-MB-231 breast) was 16.2 µM. It also gave a TGI (MDA-MB-231 breast) of 29.8 µM, a GI50 (SF-268 CNS) of 6.51 µM and a TGI (SF-268 CNS) of 20 µM. It also gave a GI50 (RPMI-8226 leukemia) of 10.5 µM, a TGI (RPMI-8226 leukemia) of 22.4 µM and a GI50 (MOLT-4 leukemia) of 1.32 µM. The TGI (MOLT-4 leukemia) was 5.02 µM, the GI50 (OVCAR-4 ovarian) was 11.2 µM and the TGI (OVCAR-4 ovarian) was 23.3 µM. It also gave a GI50 (MCF7 breast) of 10.3 µM, a TGI (MCF7 breast) of 22.1 µM and a GI50 (SK-MEL-28 melanoma) of 17.3 µM. For the same molecule, the TGI (SK-MEL-28 melanoma) was 31.2 µM, the GI50 (SF-539 CNS) was 11.3 µM and the TGI (SF-539 CNS) was 23.4 µM. It also gave a GI50 (CAKI-1 renal) of 6.76 µM, a TGI (CAKI-1 renal) of 19.6 µM and a GI50 (IGROV1 ovarian) of 0.114 µM. It also gave a TGI (IGROV1 ovarian) of 5.9 µM, a GI50 (UO-31 renal) of 6.11 µM and a TGI (UO-31 renal) of 19.9 µM. For the same molecule, the GI50 (SN12C renal) was 2.71 µM, the TGI (SN12C renal) was 16.5 µM and the GI50 (SK-OV-3 ovarian) was 2.87 µM. The TGI (SK-OV-3 ovarian) was 20.5 µM, the GI50 (ACHN renal) was 0.655 µM and the TGI (ACHN renal) was 17.3 µM. The GI50 (BT-549 breast) was 3.59 µM, the TGI (BT-549 breast) was 13.3 µM and the GI50 (A498 renal) was 11.5 µM. The TGI (A498 renal) was 23.7 µM, the GI50 (786-0 renal) was 3.78 µM and the TGI (786-0 renal) was 17.4 µM. For the same molecule, the GI50 (LOX IMVI melanoma) was 4.43 µM, the TGI (LOX IMVI melanoma) was 19.3 µM and the GI50 (HL-60(TB) leukemia) was 15.9 µM. The TGI (HL-60(TB) leukemia) was 29.4 µM, the GI50 (SF-295 CNS) was 14.7 µM and the TGI (SF-295 CNS) was 27.9 µM. For the same molecule, the GI50 (A549 NSCLC) was 12.1 µM, the TGI (A549 NSCLC) was 24.5 µM and the GI50 (HOP-92 NSCLC) was 13.6 µM. For the same molecule, the TGI (HOP-92 NSCLC) was 26.5 µM, the GI50 (NCI-H226 lung) was 6.21 µM and the TGI (NCI-H226 lung) was 19.3 µM. For the same molecule, the GI50 (SR leukemia) was 5.35 µM, the TGI (SR leukemia) was 18.4 µM and the GI50 (NCI-H23 lung) was 16.3 µM. For the same molecule, the TGI (NCI-H23 lung) was 29.9 µM, the GI50 (NCI/ADR-RES ovarian) was 11.3 µM and the TGI (NCI/ADR-RES ovarian) was 23.5 µM. For the same molecule, the GI50 (COLO 205 colon) was 18.9 µM, the TGI (COLO 205 colon) was 33 µM and the GI50 (NCI-H522 lung) was 0.0178 µM. The TGI (NCI-H522 lung) was 0.0859 µM, the GI50 (KM12 colon) was 14.5 µM and the TGI (KM12 colon) was 27.7 µM. It also gave a GI50 (HS 578T breast) of 6.88 µM, a TGI (HS 578T breast) of 19.5 µM and a GI50 (RXF 393 renal) of 1.18 µM. For the same molecule, the TGI (RXF 393 renal) was 6.31 µM, the GI50 (T-47D breast) was 0.0148 µM and the TGI (T-47D breast) was 17.7 µM. The GI50 (HCT-15 colon) was 12.6 µM, the TGI (HCT-15 colon) was 25.3 µM and the GI50 (SNB-75 CNS) was 5.51 µM. The TGI (SNB-75 CNS) was 14 µM, the GI50 (OVCAR-8 ovarian) was 12.1 µM and the TGI (OVCAR-8 ovarian) was 24.6 µM. The GI50 (NCI-H460 NSCLC) was 16.5 µM, the TGI (NCI-H460 NSCLC) was 30.1 µM and the GI50 (EKVX NSCLC) was 0.316 µM. It also gave a TGI (EKVX NSCLC) of 16.7 µM, a GI50 (U251 glioblastoma) of 14 µM and a TGI (U251 glioblastoma) of 27.1 µM. The GI50 (MDA-MB-468 breast) was 0.0226 µM, the TGI (MDA-MB-468 breast) was 0.239 µM and the GI50 (SK-MEL-5 melanoma) was 10.9 µM. For the same molecule, the TGI (SK-MEL-5 melanoma) was 23 µM, the GI50 (UACC-62 melanoma) was 5.71 µM and the TGI (UACC-62 melanoma) was 18.7 µM. The GI50 (PC-3 prostate) was 14.8 µM, the TGI (PC-3 prostate) was 28.1 µM and the GI50 (MALME-3M melanoma) was 13.5 µM. It also gave a TGI (MALME-3M melanoma) of 26.4 µM, a GI50 (DU-145 prostate) of 4.16 µM and a TGI (DU-145 prostate) of 19.2 µM. For the same molecule, the GI50 (MDA-MB-435 melanoma) was 17.2 µM, the TGI (MDA-MB-435 melanoma) was 31.1 µM and the GI50 (TK-10 renal) was 0.479 µM. For the same molecule, the TGI (TK-10 renal) was 12.1 µM, the GI50 (SNB-19 CNS) was 15 µM and the TGI (SNB-19 CNS) was 28.4 µM. It also gave a GI50 (HCT-116 colon) of 15.3 µM, a TGI (HCT-116 colon) of 28.8 µM and a GI50 (M14 melanoma) of 11.1 µM. The TGI (M14 melanoma) was 23.2 µM, the GI50 (OVCAR-5 ovarian) was 18.7 µM and the TGI (OVCAR-5 ovarian) was 32.8 µM. The GI50 (OVCAR-3 ovarian) was 2.05 µM, the TGI (OVCAR-3 ovarian) was 15.5 µM and the GI50 (UACC-257 melanoma) was 10.6 µM. The TGI (UACC-257 melanoma) was 22.5 µM, the GI50 (HOP-62 NSCLC) was 15.2 µM and the TGI (HOP-62 NSCLC) was 28.6 µM.
